This series in a line: Maximum solubility of the active agent in various excipients. The format is physicochemical.

The results in this text go back to US20100286285A1, “Pharmaceutical composition comprising oleaginous ointments and vitamin D or its derivatives in the solubilized state” (GALDERMA RESEARCH & DEVELOPMENT, priority 2005, published 2010).

Regarding `CCCc1cc(C(O)(CC)CC)ccc1-c1cc(OCc2ccc(CO)c(CO)c2)ccc1CC` [Active agent, {4-[6-ethyl-4′-(1-ethyl-1-hydroxypropyl)-2′-propylbiphenyl-3-yloxymethyl]-2-hydroxy-methylphenyl}methanol], the Sol max (in Arlamol E) is 1.033 % w/w; the Sol max (in Cremophor RH40) amounted to 3.989 % w/w; the Sol max (in Ethanol 95) is above 20 % w/w; the Sol max (in Eutanol G) worked out at 0.322 % w/w; the Sol max (in IPP) is on record as 0.1654 % w/w; the Sol max (in Labrafil M1944CS) is recorded as 0.936 % w/w. Besides, the Sol max (in Miglyol 812) is recorded as 0.3167 % w/w; the Sol max (in PEG 400) is given as 6.894 % w/w; the Sol max (in Primol 352) was found to be 0.0009 % w/w; the Sol max (in Propylene glycol) was 2.3351 % w/w; the Sol max (in Sweet almond oil) came out at 0.0932 % w/w; the Sol max (in Transcutol) is given as above 20 % w/w.
